Values after ≈ are worked out from the molar mass of the structure shown.
How the values were obtained:
[1] = Acute toxicity in mice (LD50, Behrens Kerber's method); conditions: mouse, in vivo, ip; ddy mice, single intraperitoneal administration, 14 days observation
Description: (§1) The antitumour-activity and toxicity of various compounds of formula (I) were investigated as indicated below.
Each animal of the test group consisting of 5 ddy mice was administered intraperitoneally once with a test compound. […] The LD50 was determined by Behrens Kerber's method.

[2] = test system: Streptococcus faecalis ATCC 10541; assay: Antibacterial activity, minimum growth inhibitory concentration by agar dilution method (SF); type: cell-based; conditions: Enterococcus faecalis, ATCC10541, pH 7, read-out: MIC, Streptococcus faecalis (SF)
Description: (§2) The various compounds of formula (I) of Examples 1-26 were tested for antibacterial activity against 6 microorganisms. […]. In this table, the following symbols are used:
SF: Streptococcus faecalis ATCC 10541

[3] = test system: Proteus vulgaris ATCC 6897; assay: Antibacterial activity, minimum growth inhibitory concentration by agar dilution method (PV); type: cell-based; conditions: ATCC6897, pH 7, read-out: MIC, Proteus vulgaris (PV)
Description: as §2
PV: Proteus vulgaris ATCC 6897

peripheral leucocytes = assay: Effect on the peripheral leucocytes number in Sarcoma 180 bearing mice; type: in vivo; conditions: Sarcoma 180 bearing ddy mice; intraperitoneal 24 hours after implantation; blood 4 days later
Description: as §1
(4) Effect on the peripheral leucocytes number
Sarcoma 180 solid tumour cells (5×10^6) were subcutaneously implanted into the right arm pit of each mouse (body weight 20±2 g) of a group consisting of 5 male mice (ddy strain). 24 hours after implantation, a test compound was intraperitoneally administered to each animal. 4 days later, blood (each 0.02 ml) was collected from the suborbital plexus vein of each tumour-carrying animal. The collected sample of the blood was dispersed in 9.98 ml of Cell-Kit Seven solution. One drop of saponin solution was added to the sample to dissolve erythrocytes, and then a microcell counter was used to measure the number of leucocytes. On a graph paper, the number of leucocytes was indicated on the y-axis by an arithmetic scale and the dose of the test compound was indicated on the x-axis by a logarithmic scale. The relationship between the number of peripheral leucocytes and the dosage of the test compound was plotted and the dosage corresponding to 4000 peripheral leucocytes/mm^3 (about 1/2 the number of leucocytes of normal mice) was obtained. This value is denoted in Table 5 by WBC4000.

Bacillus subtilis 10707 = assay: Antibacterial activity, minimum growth inhibitory concentration by agar dilution method (BS); type: cell-based; conditions: Bacillus subtilis, 10707, pH 7, read-out: MIC, Bacillus subtilis (BS)
Description: as §2
BS: Bacillus subtilis 10707

[4] = test system: Staphylococcus aureus ATCC 6538P; assay: Antibacterial activity, minimum growth inhibitory concentration by agar dilution method (SA); type: cell-based; conditions: ATCC6538P, pH 7, read-out: MIC, Staphylococcus aureus (SA)
Description: as §2
SA: Staphylococcus aureus ATCC 6538P

[5] = test system: Klebsiella pneumoniae ATCC 10031; assay: microbe, parasite or virus in culture; type: cell-based; conditions: ATCC10031, pH 7, read-out: MIC, Klebsiella pneumoniae (KP)
From the text: In this table, the following symbols are used:
KP: Klebsiella pneumoniae ATCC 10031

Sarcoma 180 solid tumour = assay: Anti-tumour activity against Sarcoma 180 solid tumour in mice; type: in vivo; conditions: Mus musculus, sc, 168 h; Sarcoma 180 s.c. in ddy mice; into tail vein 24 hours after implantation; volume at 7 days; read-out: ED50 (dose reducing tumour volume to 50% of control)
Description: as §1
(1) Effect against Sarcoma 180 solid tumour cells
5×10^6 cells of Sarcoma 180 solid tumour were intraperitoneally implanted into ddy mice. 7 days later, ascites cells were sampled. The cells were washed once with a sterilized physiological solution of sodium chloride and were used to prepare a cell suspension containing 5×10^7 cells per ml. On each occasion, 0.1 ml of the cell suspension was subcutaneously implanted into the right arm pit of a male mouse (ddy strain; body weight 20±2 g). The test compound was dissolved in a physiological solution of sodium chloride with or without addition of Tween 80 and was administered into the tail vein of each mouse of a group consisting of 5 mice at a dose of 0.1-0.2 ml, 24 hours after the implantation of the tumour cells.
The anti-tumour activity was determined in the following manner. 7 days after the implantation, the major axis (a) and the minor axis (b) of the tumour were measured to calculate a value of "a×b^2 /2" which corresponds to the volume of the tumour. The anti-tumour activity was expressed by the ratio of the volume of the tumours (T) of the group of animals administered with the test compound to the corresponding volume of tumours (c) of the untreated animals.
(2) Determination of ED50
(The amount needed for reducing the volume of Sarcoma 180 solid tumours in mice to 50% on the basis of the corresponding volume of Sarcoma solid tumours in control untreated animals). On graph paper, T/C (the ratio of the volume of tumours of treated and control animals) was indicated by an arithmetic scale on the longitudinal axis and the administered amount of the test compound was indicated by a logarithmic scale on the lateral axis.
The relationship between the dose and T/C was shown by a straight line determined by the method of least squares, from which a dose corresponding to T/C of 0.5 was obtained.

[6] = test system: Shigella sonnei ATCC 9290; assay: Antibacterial activity, minimum growth inhibitory concentration by agar dilution method (SS); type: cell-based; conditions: ATCC9290, pH 7, read-out: MIC, Shigella sonnei (SS)
Description: as §2
SS: Shigella sonnei ATCC 9290

[7] = Solubility in 0.03M phosphate buffered solution; type: physicochemical; conditions: 0.03m phosphate buffer, aqueous buffer, pH 7.0, 23° C.
Description: The solubilities of Compound 5, Compound 14 and Compound 20 in 0.03M phosphate buffered solution (pH 7.0, 23° C.) were determined.

SMILES | LD50 at 336 h [1] [mg/kg] | MIC [2] [µg/mL] | MIC [3] [µg/mL] | WBC4000 (dosage corresponding to 4000 peripheral leucocytes/mm^3) (peripheral leucocytes) [mg/kg] | MIC (Bacillus subtilis 10707) [µg/mL] | MIC [4] [µg/mL] | MIC [5] [µg/mL] | ED50 (Sarcoma 180 solid tumour) [mg/kg] | MIC [6] [µg/mL] | solubility [7] [µg/mL]
CO[C@@]12[C@H](COC(N)=O)C3=C(C(=O)C(C)=C(NCCSSc4cccc(N)c4)C3=O)N1C[C@@H]1N[C@@H]12 [Compound 3, 7-N-[2-(3-aminophenyldithio)ethyl]mitomycin C] | 7.5 | 0.04 (≈ 0.0773 µM) | 5 (≈ 9.66 µM) | > 10 | < 0.01 | 0.08 (≈ 0.155 µM) | 0.63 (≈ 1.22 µM) | 5 | 20 (≈ 38.6 µM) | –
CO[C@@]12[C@H](COC(N)=O)C3=C(C(=O)C(C)=C(NCCSSc4ccc(N)cc4)C3=O)N1C[C@@H]1N[C@@H]12 [Compound 4, 7-N-[2-(4-aminophenyldithio)ethyl]mitomycin C] | 9 | 0.04 (≈ 0.0773 µM) | 5 (≈ 9.66 µM) | > 10 | 0.02 (≈ 0.0386 µM) | 0.08 (≈ 0.155 µM) | 1.3 (≈ 2.51 µM) | 5.1 | > 20 | –
CO[C@@]12[C@H](COC(N)=O)C3=C(C(=O)C(C)=C(NCCSSc4ccc(NC(C)=O)cc4)C3=O)N1C[C@@H]1N[C@@H]12 [Compound 5, 7-N-[2-(4-Acetamidophenyldithio)ethyl]mitomycin C] | 30 | 0.04 (≈ 0.0715 µM) | 5 (≈ 8.93 µM) | 14.2 | 0.005 (≈ 0.00893 µM) | 0.02 (≈ 0.0357 µM) | 0.16 (≈ 0.286 µM) | 8.5 | > 40 | 52 (≈ 92.9 µM)
CC(=O)Nc1ccc(SSCCNC2=C(C)C(=O)C3=C(C2=O)[C@H](COC(N)=O)[C@@]2(O)[C@@H]4[C@H](CN32)N4C)cc1 (some centres unmarked) [Compound 7, 7-N-[2-(4-Acetamidophenyldithio)ethyl]mitomycin D] | 46.3 | 5 (≈ 8.93 µM) | > 40 | 45.5 | 5 (≈ 8.93 µM) | 10 (≈ 17.9 µM) | – | > 25 | – | –
COc1ccc(SSCCNC2=C(C)C(=O)C3=C(C2=O)[C@@H](COC(N)=O)[C@@]2(OC)[C@H]4N[C@H]4CN32)cc1 [Compound 9, 7-N-[2-(4-Methoxyphenyldithio)ethyl]mitomycin C] | 5.3 | < 0.02 | 1.3 (≈ 2.44 µM) | > 10 | < 0.02 | < 0.02 | 0.63 (≈ 1.18 µM) | 7.4 | 40 (≈ 75.1 µM) | –
CO[C@@]12[C@H](COC(N)=O)C3=C(C(=O)C(C)=C(NCCSSc4ccc(Cl)cc4)C3=O)N1C[C@@H]1N[C@@H]12 [Compound 11, 7-N-[2-(4-Chlorophenyldithio)ethyl]mitomycin C] | 9 | 0.04 (≈ 0.0745 µM) | 0.63 (≈ 1.17 µM) | > 10 | < 0.01 | < 0.01 | 0.63 (≈ 1.17 µM) | 4.5 | 10 (≈ 18.6 µM) | –
CO[C@@]12[C@H](COC(N)=O)C3=C(C(=O)C(C)=C(NCCSSc4ccc(F)cc4)C3=O)N1C[C@@H]1N[C@@H]12 [Compound 12, 7-N-[2-(4-Fluorophenyldithio)ethyl]mitomycin C] | 6.8 | < 0.02 | 0.63 (≈ 1.21 µM) | 10.4 | < 0.02 | < 0.02 | 0.31 (≈ 0.595 µM) | 3.5 | 20 (≈ 38.4 µM) | –
